Test results: patent publication US20100021918A1, “METHOD FOR ASSAYING ACTION OF ANTITUMOR AGENT USING SPLICING DEFECTS AS INDEX” (Eisai R&D Management Co., Ltd., priority 2007, published 2010)

Tested on: p27/Kip1
Test: Western blotting of abnormal protein from pre-mRNA, p27/Kip1
Assay type: cell-based, human
Conditions: HeLa cells, about 100 nM, 24 hours; untreated: only a 27 kDa band (FIG. 4)
Excerpt: Consequently the protein may serves as a protein marker to monitor the action of (8E,12E,14E)-7-((4-cycloheptylpiperazin-1-yl)carbonyl)oxy-3,6,16,21-tetrahydroxy-6,10,12,16,20-pentamethyl-18,19-epoxytricosa-8,12,14-trien-11-olide. Whether the pre-mRNA-dependent abnormal protein practically emerged upon the treatment of (8E,12E,14E)-7-((4-cycloheptylpiperazin-1-yl)carbonyl)oxy-3,6,16,21-tetrahydroxy-6,10,12,16,20-pentamethyl-18,19-epoxytricosa-8,12,14-trien-11-olide was examined by using cancer cells (HaLa). […] Based on these findings, the protein generated from pre-mRNA can serve as the marker as well.
About 3×10^5 cells of HeLa cells were first seeded in a 24-well culture plate (bottom area: 2 cm^2), and 18 hours later, the compound was added thereto at the indicated concentration, followed by additional 24-hour culturing. The cells were washed once with PBS(−), and then were lysed by treating with 0.2 ml of M-PER reagent (PIERCE) for 30 minutes. The collected lysate was filtered with a 0.45 μm filter to remove insoluble matters and then combined with an equal amount of 2×SDS-PAGE sample solution. The mixture was heated to be denatured at 95° C. for five minutes to yield a sample to be analyzed.
The analysis sample (15 μl each) was separated with 5-20% SDS-PAGE and transferred onto a PVDF membrane (Hybond-P: GE-Amersham). […]

Compound: CCC(O)C(C)C1OC1CC(C)(O)/C=C/C=C(\C)C1OC(=O)CC(O)CCC(C)(O)C(OC(=O)N2CCN(C3CCCCCC3)CC2)/C=C/C1C (stereo not shown) [E7107, (8E,12E,14E)-7-((4-cycloheptylpiperazin-1-yl)carbonyl)oxy-3,6,16,21-tetrahydroxy-6,10,12,16,20-pentamethyl-18,19-epoxytricosa-8,12,14-trien-11-olide]
- p27/Kip1 bands in Western blot: appearance of a band with about 22 kDa was confirmed
